The values that follow come from patent US7541366B2, “Pyrrolo[3,2-c]pyridine derivatives and processes for the preparation thereof” (YUHAN Corporation, priority 2004, dated 2009).

What is called IC50 is the concentration that inhibits the measured activity by half. A lower IC50 goes with greater potency in that assay. In general, ED50 refers to the dose that gives a 50% effect, or the effect in half of the subjects.

SMILES strings stand for the structures. Counter-ions that a name gives are not always drawn.

Test [1] has as its target T1, proton pump (H+/K+-ATPase) (Sus scrofa, UniProt P19156).
T1 construct: used as an enzyme source of the in vitro enzyme reaction assay of proton pump; from tissue; host or cells: hog gastric fundic mucosa; membrane vesicles, lyophilized
The experiment in a line: Inhibitory effects on proton pump (H+/K+-ATPase) activity. The class given is biochemical. The note with it: hog gastric vesicles, K+ stimulated H+/K+-ATPase activity, Pi at 620 nm, 30 minutes at 37° C. The procedure:
1-1. Preparation of gastric proton pump vesicles
The hog fundic regions containing parietal and peptic cells were scraped with slide-glass. The collected cells were suspended in 10 ml of 0.25M sucrose buffer and homogenized using a tight-fitting Teflon-glass homogenizer. The homogenate was centrifuged for 35 min at 8,000 rpm and the pellet was discarded. The supernatant was further centrifuged for 75 min at 25,000 rpm. The resulting pellets were re-suspended in the sucrose buffer (10 ml), and then the suspension was laid onto discontinuous density gradients consisting of 0.25M sucrose buffer and isolation medium containing 9% Ficoll (w/w). After being centrifuged for 3 hours and 15 minutes at 100,000×g, the material at the interface of sucrose buffer and Ficoll solution was collected and then centrifuged for 40 minutes at 100,000×g. The resulting pellets were re-suspended in 1 ml of 5 mM Hepes/Tris buffer (pH 6.1). This material was lyophilized and stored at −70° C. and used as an enzyme source of the in vitro enzyme reaction assay of proton pump.
1-2. Measurement of inhibitory effects on proton pump (H^+/K^+-ATPase) activity
The inhibitory effects of the compounds of the present invention against proton pump activity were evaluated in 96-well plate. In this assay, the K^+specific H^+/K^+-ATPase activity was calculated based on the difference between the activity of H^+/K^30 -ATPase activity with K^30 and without K^30 ion. In 96-well plate, 1% dimethylsulfoxide (DMSO) in buffer was added to negative and positive control groups and the diluted compounds of the present invention in buffer were added to test group. All assays were performed in 100μl reaction volume at room temperature, and the hog gastric vesicle was kept in ice before use. At the beginning of the reaction, 10μl of reaction buffer containing 1% DMSO was added to the negative and positive control groups and to reaction buffer each concentration of compounds in the test group. Then lyophilized vesicle in 5mM Pipes/Tris buffer (pH 6.1) was pre-incubated in the presence of various concentrations of test compounds. After a 5 minute incubation, negative and positive buffers were respectively added to the previous reaction mixture. As the substrate, ATP was added to the reaction buffer, and incubated for 30 minutes at 37° C. Enzymatic activity was stopped by the addition of colorimetric reagent (2X malachite green, 1X ammonium molybdate, X polyvinyl alcohol, 2X H2O) and the amount of mono phosphate (Pi) in the reaction was measured at 620nm using the micro plate reader (Genios Pro, TECAN). The difference between the Pi production with K^+and without K^+is taken as K^+stimulated H^+/K^+-ATPase activity. The IC50s of test compounds were calculated from each % inhibition value of compounds using the method of Litchfield-Wilcoxon (J. Pharmacol. Exp. Ther. (1949) 96, 99).

For test [2], the system named is basal gastric acid secretion. The experiment in a line: Inhibitory effects on basal gastric acid secretion in pylorus-ligated rats (Shay's rat model). The class given is in vivo, Sprague Dawley (SD) rats. As to conditions: oral, one hour before pylorus ligation, total acid output 5 hours after ligation, male SD rats. The procedure:
Test Example 2. Inhibitory effects on basal gastric acid secretion in pylorus-ligated rats. Inhibitory effects of the compounds of the present invention on basal gastric acid secretion were performed according to Shay's rat model (Shay, H., et al., 1945, gastroenterology, 5, 43-61). Male Sprague Dawley (SD) rats (200±10 g body weight) were divided into 3 groups (n=5) and fasted for 24 hours with free access to water. Control group was orally administered with 0.5% methylcellulose alone and the other groups were orally administered with test compounds suspended in 0.5% methyl-cellulose solution at doses of 1, 3 and 10 mg/kg/5 ml one hour before pylorus ligation. Under ether anesthesia, the abdomens of the rats were incised and then the pylorus was ligated. 5 hours after ligation, the animals were sacrificed, and the gastric contents were collected. The collected contents were centrifuged at 1,000×g for 10 minutes to obtain the gastric juice. Total acid output was measured by 0.01N NaOH volume (ueq/ml) for automatic titration of the gastric juice to pH 7.0 and the ED50s of test compounds were calculated using the Litchfield-Wilcoxon method. % inhibitory activity was calculated from the following equation and the results are shown in Table 2. %inhibitory activity of test compound=(total acid output of control group−total acid output of the group treated with test compounds)/total acid output of control group X 100

A further test concerns the target T2, hog gastric H+/K+-ATPase (Sus scrofa, UniProt P19156).
T2 construct: from tissue; host or cells: hog gastric fundic mucosa; gastric vesicles/microsomes, lyophilized
As to the kind of experiment: Reversible inhibition of hog gastric H+/K+-ATPase (Washout method). The class given is biochemical. The procedure:
Gastric vesicles were prepared from hog fundic mucosa using the method of Saccomani et al. (Saccomani G, Stewart H B, Shqw D, Lewin M and Sachs G, Characterization of gastric mucosal membranes. IX. Fraction and purification of K-ATPase-containing vesicles by zonal centrifugation and free-flow electrophoresis techinque. Biochem. Biophy. Acta.(BBA)—Biomembranes 465, 311-330, 1977.). This material was lyophilized and stored at −70° C. The protein content of gastric vesicles was determined by the Bradford method using bovine serum albumin as a standard (Bradford M M, A rapid and sensitive method for the quantitation of microgram quantities of protein utilizing the principle of protein-dye binding. Anal Biochem. 72, 248-254, 1976).
Activity of H^+/K^+-ATPase in hog microsome (lyophilized vesicle) was measured by the inorganic phosphate released from ATP using an one-step colorimetric detection method at the concentration at which the test compounds have 50% inhibition of the proton pump (Chan K M, Delfert D, and Junger K D, A direct colorimetric assay for Ca^2+-stimulated ATPase activity. Anal Biochem, 157, 375-380, 1986). […]

T1 sequence (P19156 whole entry): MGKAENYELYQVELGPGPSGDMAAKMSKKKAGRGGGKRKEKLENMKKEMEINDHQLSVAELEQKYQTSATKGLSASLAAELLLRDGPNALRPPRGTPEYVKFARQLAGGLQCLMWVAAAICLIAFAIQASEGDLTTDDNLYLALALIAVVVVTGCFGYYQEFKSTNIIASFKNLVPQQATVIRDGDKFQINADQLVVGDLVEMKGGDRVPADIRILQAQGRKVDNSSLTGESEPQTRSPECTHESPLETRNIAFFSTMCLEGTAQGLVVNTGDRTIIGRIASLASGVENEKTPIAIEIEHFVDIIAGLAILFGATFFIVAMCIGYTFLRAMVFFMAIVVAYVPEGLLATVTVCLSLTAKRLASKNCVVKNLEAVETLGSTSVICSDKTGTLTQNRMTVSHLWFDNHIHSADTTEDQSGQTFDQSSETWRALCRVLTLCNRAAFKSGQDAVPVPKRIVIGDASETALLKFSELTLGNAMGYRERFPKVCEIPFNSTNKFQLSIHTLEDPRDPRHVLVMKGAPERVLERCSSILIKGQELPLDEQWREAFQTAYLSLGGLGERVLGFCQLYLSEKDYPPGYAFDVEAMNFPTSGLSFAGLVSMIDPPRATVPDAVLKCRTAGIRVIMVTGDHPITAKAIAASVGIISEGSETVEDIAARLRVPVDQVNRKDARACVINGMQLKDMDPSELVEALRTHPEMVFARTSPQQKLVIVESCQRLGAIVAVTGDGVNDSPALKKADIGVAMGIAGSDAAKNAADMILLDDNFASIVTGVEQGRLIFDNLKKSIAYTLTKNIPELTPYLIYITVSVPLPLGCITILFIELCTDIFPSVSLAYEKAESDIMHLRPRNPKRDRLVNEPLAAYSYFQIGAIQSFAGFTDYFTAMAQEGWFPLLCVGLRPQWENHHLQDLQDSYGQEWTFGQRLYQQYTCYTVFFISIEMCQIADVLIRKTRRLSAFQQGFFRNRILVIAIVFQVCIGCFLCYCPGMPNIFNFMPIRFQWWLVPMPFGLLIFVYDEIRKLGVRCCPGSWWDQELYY
T1 sequence (P18434 whole entry partner): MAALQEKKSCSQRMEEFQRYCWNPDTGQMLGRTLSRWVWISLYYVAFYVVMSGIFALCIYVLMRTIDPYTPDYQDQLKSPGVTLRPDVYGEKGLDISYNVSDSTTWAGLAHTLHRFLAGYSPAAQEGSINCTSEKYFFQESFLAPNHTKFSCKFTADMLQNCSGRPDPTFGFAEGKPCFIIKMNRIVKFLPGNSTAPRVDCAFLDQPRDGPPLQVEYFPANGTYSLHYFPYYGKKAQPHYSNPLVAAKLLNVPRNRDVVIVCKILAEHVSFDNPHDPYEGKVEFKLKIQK
T2 sequence (P19156 whole entry): as the sequence (P19156 whole entry) above
T2 sequence (P18434 whole entry partner): as the sequence (P18434 whole entry partner) above

Turning to `Cc1c(C)n(Cc2ccccc2)c2c(OCc3ccc(F)cc3)cncc12.Cl` [Example 12, 1-benzyl-7-(4-fluorobenzyloxy)-2,3-dimethyl-1H-pyrrolo[3,2-c]pyridine hydrochloride], the IC50 in test [1] stood at 10 nM. This molecule also returned an ED50 in test [2] of 3.3 mg/kg.
Consider `COCCn1c(C)c(C)c2cncc(OCc3ccc(F)cc3)c21.Cl` [Example 17, 7-(4-fluorobenzyloxy)-1-(2-methoxyethyl)-2,3-dimethyl-1H-pyrrolo[3,2-c]pyridine hydrochloride], for which, in test [1], the IC50 was found to be 10 nM. In test [2], this molecule showed an ED50 of 3.3 mg/kg.
In the case of `CCCn1c(C)c(C)c2cncc(N3CCc4ccccc4C3)c21.Cl` [Example 38, 2-(2,3-dimethyl-1-propyl-1H-pyrrolo[3,2-c]pyridin-7-yl)-1,2,3,4-tetrahydroisoquinoline hydrochloride], in test [1], the IC50 was 190 nM. Besides, the “inhibition of H+/K+-ATPase activity after washout” value against hog gastric H+/K+-ATPase (after washout, compared with non-treated group) was “did not inhibit”. Besides, the “inhibition of H+/K+-ATPase activity before washout” value against hog gastric H+/K+-ATPase (before washout, test compound at the concentration at which it has 50% inhibition) is given as 50%.
With `C#CCn1c(C)c(C)c2cncc(OCc3ccc(F)cc3)c21.Cl` [Example 2, 7-(4-fluorobenzyloxy)-2,3-dimethyl-1-(prop-2-ynyl)-1H-pyrrolo[3,2-c]pyridine hydrochloride], in test [1], half-maximal inhibition (IC50) required 10 nM. For the same molecule, the ED50 in test [2] came out at 1.1 mg/kg.
`CCCn1c(C)c(C)c2cncc(OCc3ccc(F)cc3)c21.Cl` [Example 16, 7-(4-fluorobenzyloxy)-2,3-dimethyl-1-propyl-1H-pyrrolo[3,2-c]pyridine hydrochloride] displayed an IC50 in test [1] of 10 nM. The molecule also had an ED50 in test [2] of 1.8 mg/kg.
As to `Cc1ccc(C)c(Cn2c(C)c(C)c3cncc(OCc4ccc(F)cc4)c32)c1` [Example 13, 1-(2,5-dimethylbenzyl)-7-(4-fluorobenzyloxy)-2,3-dimethyl-1H -pyrrolo[3,2-c]pyridine hydrochloride], in test [1], the IC50 is 1020 nM.
